Legend:
Type in all cases: cell-based, human
A27L-specific CD8+ CTLs [1] = experiment: Induction of A27L-specific CD8+ CTLs by washed pulsed immature dendritic cells co-cultured with lymphocytes (tetramer flow cytometry)
Procedure: (§1) As a negative control, dendritic cells that were cultured without adding ZOMETA™ or the antigenic peptides were used.
After about 12 hours of culture, part of the activated dendritic cells that were co-pulsed with ZOMETA™ and the antigenic peptides were collected, placed in a 15 ml tube (BD Falcon) and centrifuged at 1500 rpm for 5 minutes. The resultant dendritic cells in the form of pellets were suspended in 10 ml of an AIM-V medium supplemented with 10% FBS and centrifuged at 1500 rpm for 5 minutes, followed by washing. The washing operation was repeated twice. The dendritic cells collected in this manner were used as stimulating cells. In other words, the activated dendritic cells that were co-pulsed with bisphosphonate and the disease antigenic peptides, the dendritic cells that were pulsed with either of them and the dendritic cells that were not pulsed with any of them were used as stimulating cells. […]
After dyeing in a shielded state at room temperature for 15 minutes, an anti-CD8 antibody that was labeled with FITC (BD Pharmingen) was added, followed by dyeing in a shielded state at 4° C. for 15 minutes. […] The cells were measured using EPICS XL.MCL, and the results of measurement were analyzed using EPICS 32.

IFN-γ producing cells = experiment: IFN-γ ELISPot of co-cultured immunocytes
Procedure: 70% ethanol was added to each well of MultiScreen plate (MILLIPORE) and removed within 2 minutes. Each well of the above-noted plate was washed five times in 200 μl of PBS. […] This plate was left overnight at 4° C. This plate was washed four times in 200 μl/well of PBS. Then, 200 μl of an AIM-V medium supplemented with 10% FBS was added in each well, followed by blocking at room temperature for at least 30 minutes. The blocking medium was removed, and the plate was washed four times in 200 μl/well of PBS. A co-cultured cell population in each condition obtained by a method similar to the above-described co-culture was collected by centrifugation and washed twice in AIM-V.
The number of cells indicates the number per well of an assay plate. […] The culture volume was adjusted to be 100 μl per well. For each culture condition, 300 μl of culture, which corresponds to 3 wells, was performed. 100 μl per well of the cells pre-cultured under each condition was added into 3 wells in the plate that had been washed in PBS after blocking, and cultured overnight at 37° C. under a condition of 5% CO2. The cultured cells were removed from the wells and washed five times in 200 μl/well of PBS. […] The plate was allowed to stand still at room temperature for 2 hours. This plate was washed five times in 200 μl/well of PBS. Streptavidin to which alkaline phosphatase was bound (MABTECH ELISPot™ for Human Interferon-γ kit) was diluted with PBS supplemented with 0.5% FBS so that 1:1000, and 100 μl thereof per well was added. The plate was left at room temperature for 1 hour. This plate was washed five times in 200 μl/well of PBS. Then, 100 μl of BCIP/NBTplus substrate solution (Wako) was added per well, which was left in a dark place until spots became visible. When the spots became visible to the naked eye, the plate was washed sufficiently in distilled water. After checking that a membrane in the plate is dry, the number of spots were measured using ELISPot™ reader (AID Autoimmun Diagnostika GmbH), and the data were analyzed with AID software version 3.1 (AID).

[2] = test system: A27L antigen-specific CD8+ CTLs; experiment: Induction of A27L-specific CD8+ CTLs by dendritic cells co-pulsed with ZOMETA and apoptotic melanoma cells
Procedure: From a healthy donor, 200 ml of peripheral blood was collected. Mononuclear cells were obtained from this peripheral blood of the healthy donor. At this time, a mononuclear cell layer was collected using a density gradient solution for blood cell separation. After several times of washing in order to remove platelets, etc. from the collected cells, CD14-positive cells were isolated as monocytes with MACS. From the obtained dendritic cell precursors, differentiation induction of dendritic cells was carried out. The medium was prepared by adding 500 U/ml of GM-CSF (IMMUNEX) and 500 U/ml of IL-4 (Osteogenetics GmbH) to AIM-V supplemented with 10% FBS. On day 5 to day 7 after starting culture, immature dendritic cells were obtained.
A cancer cell line derived from MART-1-positive melanoma was collected, placed in a 15 ml tube (BD Falcon) and centrifuged at 1500 rpm for 5 minutes. […]
Using the number of all lymphocytes that were proliferated 7, 11 and 14 days after the start of co-culture, a labeled antibody and an antigen-specific tetramer, the ratio of the antigen-specific CD8+ CTLs in all of the lymphocytes was measured with a flow cytometer. […] The cells were measured using EPICS XL.MCL, and the results of measurement were analyzed using EPICS 32.

BMLF1-specific CD8+ CTLs = experiment: Induction of BMLF1-specific CD8+ CTLs by dendritic cells co-pulsed with ZOMETA and BMLF1; conditions: for The number of CTLs / The total number of cells / Ratio of CTLs (%): BMLF1 2 μg/ml; for Ratio of CTLs (%): immature dendritic cells, 7 days
Procedure: as §1
After about 12 hours of the culture, part of the activated dendritic cells that were co-pulsed with ZOMETA™ and the antigenic peptides were collected, placed in a 15 ml tube (BD Falcon) and centrifuged at 1500 rpm for 5 minutes. The resultant dendritic cells in the form of pellets were suspended in 10 ml of an AIM-V medium supplemented with 10% FBS and centrifuged at 1500 rpm for 5 minutes, followed by washing. The washing operation was repeated twice. The dendritic cells collected in this manner were used as stimulating cells. In other words, the activated dendritic cells that were co-pulsed with bisphosphonate and the disease antigenic peptides, the dendritic cells that were pulsed with either of them and the dendritic cells that were not pulsed with any of them were used as stimulating cells. Cells prepared by suspending those (a CD14-negative cell population, which was mainly a T cell population) remaining after isolation of the CD14-positive cells for preparing the dendritic cells in an AIM-V medium supplemented with 10% FBS and 10% dimethyl sulfoxide (DMSO), and freeze-preserving them were thawed, washed and used as responding cells. 1×10^5 each of the obtained stimulating cells (dendritic cells) were cultured with 1×10^6 responding cells such that the total amount was 1 ml in a 48-well plate (CORNING) (responding cells:dendritic cells=10:1). The co-culture was carried out at about 37° C. under a condition of 5% CO2 for 7 days. […] In the case where the cells were proliferated rapidly, 1 ml of an AIM-V medium supplemented with 40 U/ml of IL-2 and 10% FBS was added on day 4 to day 6.
After dyeing in a shielded state at room temperature for 15 minutes, an anti-CD8 antibody that was labeled with FITC (BD Pharmingen) was added, followed by dyeing in a shielded state at 4° C. for 15 minutes. As a control, an isotype of each of the antibodies was used. The cells were measured using EPICS XL.MCL, and the results of measurement were analyzed using EPICS 32.

A27L-specific CD8+ CTLs [3] = experiment: Induction of A27L-specific CD8+ CTLs by artificial antigen-presenting cells MDA-MB/CD80 co-pulsed with ZOMETA and A27L; conditions: co-pulse 0.01 μM or 1 μM ZOMETA and 2 μg/ml A27L
Procedure: A human CD80 gene, which was a co-stimulatory molecule, was transfected by a lipofection method in a breast cancer-derived cell line: MDA-MB-231 (class I antigen HLA-A*0201) expressing MHC class I molecules, thus establishing a cell line MDA-MB/CD80 expressing human CD80 stably and constantly in MDA-MB-231 cells.
As a negative control, MDA-MB/CD80 cells that were cultured without adding ZOMETA™ or the antigenic peptides were used.
After about 12 hours of culture, part of the activated MDA-MB/CD80 cells that were co-pulsed with ZOMETA™ and the antigenic peptides were collected, placed in a 15 ml tube (BD Falcon) and centrifuged at 1500 rpm for 5 minutes. The resultant MDA-MB/CD80 cells in the form of pellets were suspended in 10 ml of an AIM-V medium supplemented with 10% FBS and centrifuged at 1500 rpm for 5 minutes, followed by washing. The washing operation was repeated twice. The MDA-MB/CD80 cells collected in this manner were used as stimulating cells. In other words, the activated MDA-MB/CD80 cells that were co-pulsed with bisphosphonate and the disease antigenic peptides, the MDA-MB/CD80 cells that were pulsed with either of them and the MDA-MB/CD80 cells that were not pulsed with any of them were used as stimulating cells. […]

For `O=P(O)(O)C(O)(Cn1ccnc1)P(=O)(O)O` [ZOMETA ™, zoledronate sodium hydrate], the “ratio of antigen-specific CD8+ CTLs versus dendritic cells pulsed with peptides alone” value (A27L-specific CD8+ CTLs [1]; co-pulse 0.01 μM ZOMETA and 2 μg/ml A27L) was “about 4 times”, the “Ratio (%) of disease antigen-specific CD8+ CTLs” value (A27L-specific CD8+ CTLs [1]; immature dendritic cells, ZOMETA 0.01 μM and/or A27L 2 μg/ml, 7 days co-culture) was 0.00% and the “The number of IFN-γ producing cells in all of 2500 lymphocytes” value (“The number of IFN-γ producing cells” below) (IFN-γ producing cells; Donor A, Lymphocytes + dendritic cells pulsed with peptides (re-stimulation)) was 100. The “The number of IFN-γ producing cells” value (IFN-γ producing cells; Donor A, Lymphocytes alone (no re-stimulation)) was 4, the “The number of IFN-γ producing cells” value (IFN-γ producing cells; Donor B, Lymphocytes + dendritic cells pulsed with peptides (re-stimulation)) was 50 and the “The number of IFN-γ producing cells” value (IFN-γ producing cells; Donor B, Lymphocytes alone (no re-stimulation)) was 0. The “increase of tetramer-positive cells by the addition of ZOMETA” value ([2]; day 11, versus apoptotic cells alone) was “about 15 times”, the “Ratio of CD8+ CTLs (%), A27L-specific” value ([2]; day 11 of culture, ZOMETA 0.01 μM, apoptotic MART-1-positive melanoma cells) was 0.14% and the “The number of CTLs” value (BMLF1-specific CD8+ CTLs; ZOMETA 0.01 μM) was 10845. For the same compound, the “The total number of cells” value (BMLF1-specific CD8+ CTLs; ZOMETA 0.01 μM) was 2.01 × 10^6, the “Ratio of CTLs (%)” value (BMLF1-specific CD8+ CTLs; ZOMETA 0.01 μM) was 0.54% and the “The number of CTLs” value (BMLF1-specific CD8+ CTLs; ZOMETA 0.1 μM) was 12130. For the same compound, the “The total number of cells” value (BMLF1-specific CD8+ CTLs; ZOMETA 0.1 μM) was 2.17 × 10^6, the “Ratio of CTLs (%)” value (BMLF1-specific CD8+ CTLs; ZOMETA 0.1 μM) was 0.56% and the “The number of CTLs” value (BMLF1-specific CD8+ CTLs; ZOMETA 1 μM) was 11389. For the same compound, the “The total number of cells” value (BMLF1-specific CD8+ CTLs; ZOMETA 1 μM) was 1.96 × 10^6, the “Ratio of CTLs (%)” value (BMLF1-specific CD8+ CTLs; ZOMETA 1 μM) was 0.58% and the “The number of CTLs” value (BMLF1-specific CD8+ CTLs; ZOMETA 5 μM) was 21266. The “The total number of cells” value (BMLF1-specific CD8+ CTLs; ZOMETA 5 μM) was 2.84 × 10^6, the “Ratio of CTLs (%)” value (BMLF1-specific CD8+ CTLs; ZOMETA 5 μM) was 0.75% and the “The number of CTLs” value (BMLF1-specific CD8+ CTLs; ZOMETA 20 μM) was 21133. For the same compound, the “The total number of cells” value (BMLF1-specific CD8+ CTLs; ZOMETA 20 μM) was 2.94 × 10^6, the “Ratio of CTLs (%)” value (BMLF1-specific CD8+ CTLs; ZOMETA 20 μM) was 0.72% and the “ratio of antigen-specific CD8+ CTLs versus dendritic cells pulsed with peptides alone” value (BMLF1-specific CD8+ CTLs; co-pulse ZOMETA 0 to 20 μM and BMLF1) was “about 3.2 times”. For the same compound, the “ratio of antigen-specific CD8+ CTLs versus MDA-MB/CD80 cells pulsed with peptides alone” value (A27L-specific CD8+ CTLs [3]) was “about 6 times”.

From patent publication US8609410B2 (priority 2005, dated 2013)
